From US20200093801A1, “NEW METHODS FOR THE TREATMENT OF MULTIPLE SCLEROSIS” (Novartis AG, priority 2017, published 2020)
“Also recorded” adds a separate entry of the source.

How the values were obtained:
MOG Peptide-Induced EAE = assay: MOG peptide-induced EAE; assay type: in vivo, Mice (C57BL/6J OlaHsd); details: 100 and 150 mg/kg p.o. qd, day 14 to day 28 post-immunization; compared to vehicle
Experimental: Mice (C57BL/6J OlaHsd) were commercially purchased from Harlan Laboratories BV (9 weeks old, females). All the animals were allowed to adapt for 7 days prior the start of the experiment and housed in IVC racks (max. 4 mice/XJ Type cage). The animals were given access to food and water ad libitum. Mice were immunized at with subcutaneous injection on the lower back of myelin oligodendrocyte glycoprotein peptide ([…]; in house produced; 200 μg/100 emulsified in 4 mg/ml complete Freund adjuvant (CFA, Sigma). Pertussis toxin (Fluka; 200 ng per mouse) was administered intraperitoneally on day 0 and day 2. Evaluation of EAE: The mice were observed and weighed daily. They were assessed for clinical signs on a scale from 0 to 5, with graduations of 0.5 for intermediate scores. 0: no clinical signs, 1: Limp tail/complete loss of tail tonus; 2: Clear hind limb weakness; 3: Complete bilateral hind limb paralysis; 4: Fore limbs and hind limbs paralysis; 5: Death. Supplementary food and gel food were provided inside the cage once first clinical signs appeared. Animals were treated for 14 days with 100 and 150 mg/kg of BLZ945, qd, p.o. 10 ml/kg from day 14 to day 28 post-immunization. BLZ945 was prepared in 0.5% methylcellulose in water and 0.1% Tween-80.

microglia = assay: Microglia depletion and activation in naive/wildtype mice after 5 days of treatment (Iba1 histology); assay type: in vivo
Experimental: After fixation brains were processed for paraffin embedding by dehydration through increasing ethanol series. Automated immunohistochemistry of paraffin sections was performed on 3 μm paraffin sections mounted on SuperFrost+slides (Thermo Fisher Scientific) and automatically immunostained using the Discovery XT technology (Ventana, Roche Diagnostics). Sections were deparaffinized, rehydrated, subjected to antigen retrieval by heating with CC1 cell conditioning buffer for 28-68 min according to the antibody, incubated for 1-3 hours according to the antibody at room temperature with primary antibody diluted in antibody diluent (Ventana), incubated with the respective biotinylated secondary antibody diluted in antibody diluent, reacted with DABMab kit and counterstained with Hematoxylin II and Bluing reagent (Ventana). Slides were washed with soap in hot tap water and rinsed under cold running tap water to remove the soap, then dehydrated and embedded with Pertex.
Secondary detection antibodies are: Goat anti-rabbit IgG biotinylated (Jackson ImmunoResearch 111-065-144) 1:1000; Goat anti-rabbit IgG biotinylated (Vector BA-1000) 1:200 or 1:1000
For the quantitative evaluation of microglia/astrocyte numbers based on image analysis from histological stained brain sections, a proprietary image analysis platform (ASTORIA, Automated Stored Image Analysis) was developed based on MS Visual Studio 2010 and many functions from Matrox MIL V9 libraries (Matrox Inc, Quebec, Canada).
For the detection and analysis of soma the following sequence of steps was performed: 1. Slides with brain sections for assessment of (brown) IHC stained microglia (Iba1) or astrocyte (GFAP) were scanned with Aperio's Scanscope at 20× magnification. 2. Ran the in-house developed ImageScope (V12.1.0.5029, Aperio Inc., USA) plug-in for creation and export of 3×8-bit RGB tif image tiles (at 20× magnification) for each section. 3. Image processing (for each tif image): A: Performed color deconvolution on each tif image to obtain brown stained image without blue. B: Segmentation of valid sample (brain tissue) from white background through thresholding, morphological closing, filling of holes, opening and elimination of too small objects, resulting in a binary mask of the valid tissue and sample area for the current image. C: Applied an adaptive thresholding technique for the individual segmentation of soma, based on the average gray value of the blue channel of the color-deconvoluted brown image at sufficiently dark regions (indicative for soma). The computed threshold was used for binarization, and after size filtering yielding the soma mask image (within the valid sample region).
FIG. 10: BLZ945 treatment leads to microglia depletion and microglia activation in a dose-dependent manner. […]

[1] = 20 mg/kg p.o. qd, naive/wildtype mice

SMILES: CNC(=O)c1cc(Oc2ccc3nc(N[C@@H]4CCCC[C@H]4O)sc3c2)ccn1 [BLZ945, 4-(2-((1R,2R)-2-hydroxycyclohexylamino)benzothiazol-6-yloxy)-N-methylpicolinamide]
- EAE clinical score / disease progression (MOG Peptide-Induced EAE): did not alter disease progression; also recorded: No difference
- EAE disease onset/incidences (MOG Peptide-Induced EAE): similar
- Weight change in EAE mice (MOG Peptide-Induced EAE): similar
- Microglia activation (Iba1-positive microglia size normalized to distal microglia processes), cortex (microglia; [1]): only mildly; also recorded: slight increase in the activation status
- Microglia depletion (Iba1-positive microglia numbers), cortex (microglia; [1]): no microglia depletion; also recorded: no microglia reduction
- Microglia activation (Iba1-positive microglia size normalized to distal microglia processes), cortex (microglia; 60 mg/kg p.o. qd, naive/wildtype mice): strong microglia activation; also recorded: substantially enhanced the morphological activation status; also recorded: altered microglia morphology
- Microglia depletion (microglia; 169 mg/kg p.o. qd, naive animals, all brain areas): almost completely depletes microglia; also recorded: near complete microglia depletion
